According to PubChem BioAssay (NCI):
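Cultured in 96-well plates, cells were exposed to test compound for 48 hours across five concentrations. At the GI50, growth is halved. TGI marks complete inhibition of growth.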

Assays:
Experiment in all cases: NCI tumour cell line growth inhibition, 48 h
DMS 114 small cell lung = tested on: DMS 114 small cell lung
LXFL 529 NSCLC = tested on: LXFL 529 NSCLC
M19-MEL melanoma = tested on: M19-MEL melanoma
KM20L2 colon = tested on: KM20L2 colon
XF 498 CNS = tested on: XF 498 CNS
DLD-1 colon = tested on: DLD-1 colon
DMS 273 small cell lung = tested on: DMS 273 small cell lung
MDA-N = tested on: MDA-N
RXF-631 renal = tested on: RXF-631 renal

Structure (SMILES)	TGI (DMS 114 small cell lung)	TGI (LXFL 529 NSCLC)	TGI (M19-MEL melanoma)	TGI (KM20L2 colon)	TGI (XF 498 CNS)	TGI (DLD-1 colon)	TGI (DMS 273 small cell lung)	TGI (MDA-N)	TGI (RXF-631 renal)	GI50 (KM20L2 colon)	GI50 (DLD-1 colon)	GI50 (DMS 273 small cell lung)	GI50 (LXFL 529 NSCLC)	GI50 (M19-MEL melanoma)	GI50 (MDA-N)
O=C1CC[C@@H](S(=O)(=O)c2ccccc2)[C@H](/C=C/c2ccccc2)O1	> 100 µM	> 100 µM	> 100 µM												
Cc1[nH]c2ccccc2c1/C=C/c1c(C)[nH]c2ccccc12	> 100 µM	> 100 µM	> 100 µM	> 100 µM	> 100 µM	> 100 µM	> 100 µM								
C=C(CC)C(=O)c1ccc(OCC(=O)O)c(Cl)c1Cl								> 55.2 µM							
Nc1nc2c(ncn2C2OC(CO)C(O)C2O)c(=O)o1 (centres undefined)	> 100 µM	> 100 µM	> 100 µM	> 100 µM	> 100 µM	> 100 µM	> 100 µM		> 100 µM						
CCOC(=O)C1(C)C2=CC=C(O2)C(C)(C)C2=CC=C(O2)C(C)(C)C2=CC=C(O2)C(C)(C)C2=CC=C1O2		> 100 µM	> 100 µM	> 100 µM	> 100 µM		> 100 µM		> 100 µM						
N#CC(Cl)CS(=O)(=O)c1ccccc1 (centres undefined)	9.34 µM		29.2 µM	39.4 µM	9.64 µM	3.98 µM		20.2 µM							
Cc1cc(C)c([O-])c(-[n+]2c(-c3ccccc3)cc(-c3ccccc3)cc2-c2ccccc2)c1	12.3 µM	14.4 µM	13.2 µM	12.9 µM	6.21 µM	16.7 µM	12.1 µM		26.4 µM						
NNC(=O)N/N=C(/CC1(O)C(=O)Nc2ccc(Br)cc21)c1ccccc1 (centres undefined)		> 100 µM	> 100 µM	> 100 µM	38.5 µM	> 100 µM	> 100 µM		> 100 µM						
O=C1C=C(Nc2cc(Cl)ccc2Cl)c2ccccc2C1=O	76.2 µM		29.2 µM	> 100 µM		> 100 µM	68.6 µM		> 100 µM						
CN(C)CC1CCCC/C1=N\OC(=O)c1ccccc1 (centres undefined)	> 100 µM	> 100 µM	> 100 µM	> 100 µM	> 100 µM	> 100 µM	> 100 µM		> 100 µM						
CS(=O)(=O)ON1C(=O)c2ccc(N)cc2C1=O	> 100 µM	> 100 µM	> 100 µM	> 100 µM	> 100 µM	> 100 µM	> 100 µM		> 100 µM						
[CH3][Ge]([CH3])([CH2]CC#N)[S]c1ccccc1		27.5 µM	48 µM	47.9 µM		31.6 µM	29.5 µM			21.6 µM	14.6 µM	6.1 µM	13.5 µM	16 µM	
C=C1C2CCCC1C1(S(C)(=O)=O)CCCCC21O (centres undefined)	> 100 µM	> 100 µM	> 100 µM	> 100 µM		> 100 µM	> 100 µM								
COC12OCCN(C)C1=CC(=O)C1N=NCC12 (centres undefined)	> 100 µM	> 100 µM	> 100 µM			> 100 µM	> 100 µM		> 100 µM						
Nc1nc(N)c2c(Cl)c(CNc3ccc(Cl)c(Cl)c3)ccc2n1	4.85 µM	12.3 µM	12.5 µM	18.6 µM	7.71 µM	11.8 µM	3.87 µM	17 µM							
COC1(OC)CCC2(C)OC(c3ccccc3)C1O2 (centres undefined)	> 100 µM	> 100 µM		> 100 µM	> 100 µM	> 100 µM	> 100 µM								
C=C1CC[C@@](C)(c2cc(Br)c(C)cc2OC(C)=O)[C@H]1C								26.6 µM							11.7 µM
NC(N)=NCCCC(Nc1c2ccccc2nc2ccccc12)C(=O)O (centres undefined)		> 100 µM	> 100 µM	> 100 µM		> 100 µM	> 100 µM		> 100 µM						
Cc1cc(NS(=O)(=O)c2ccc(NC(=O)c3cccc4c(Nc5ccc(S(=O)(=O)Nc6cc(C)on6)cc5)c5ccc(Cl)cc5nc34)cc2)no1	> 100 µM	> 100 µM	> 100 µM	> 100 µM	> 100 µM	> 100 µM	> 100 µM								
CCc1nc(N)nc(N)c1-c1ccc(N2CCNCC2)c([N+](=O)[O-])c1								> 100 µM							
NC(=O)NC(=O)Nc1ccc(Br)cc1								> 100 µM							
